Entries after “also recorded” stand apart in the source; their conditions may differ. Like-named read-outs stand apart in the source and are kept apart here.
Experiments:
[1] = tested on: MCF-7 cells (human breast cancer cell line); assay: In vitro cytotoxicity, viability assay (MTT method), MCF-7; assay type: cell-based; conditions: MCF7, 24 h incubation, triplicate, read-out: IC50 values (mean ± SD) MCF-7
Method: (§1) All experiments were conducted in triplicate.
(§2) Scaffold I compounds were characterised by the uracil core attached to the 5,5-dimethyl cyclohexanone moiety through an NH linker and bearing an amino group at position 6. The activity of such compounds could be attributed to the larger number of hydrogen bond donors when compared to compounds with scaffold II. On the other hand, the activity of 5d with scaffold II could be attributed to the nature of the substituent at N1 of the pyrimidine ring being a hydrophobic benzyl group that could be involved in hydrophobic interaction and π-π stacking. Generally, the isosteric substitution of oxo with thioxo at position 2 of the pyrimidine ring lowered the anti-proliferative activity in both scaffolds I and II compounds.

[2] = tested on: A-549 cells (lung carcinoma); assay: In vitro cytotoxicity, viability assay (MTT method), A-549; assay type: cell-based; conditions: Homo sapiens, A549, 24 h incubation, triplicate, read-out: IC50 values (mean ± SD) A-549
Method: as §1, §2

[3] = tested on: HepG-2 cells (human Hepatocellular carcinoma); assay: In vitro cytotoxicity, viability assay (MTT method), HepG-2; assay type: cell-based; conditions: HepG2, 24 h incubation, triplicate, read-out: IC50 values (mean ± SD) HepG-2
Method: as §1, §2

[4] = tested on: HepG-2 cells; assay: Flow cytometric analysis of cell-cycle distribution (propidium iodide); assay type: cell-based, human
Method: Cell-cycle analysis was performed by DNA staining with propidium iodide (PI) following the manufacturer’s protocol (Abcam, USA)[36]. HepG-2 cells were cultured following the procedure till exponential growth was reached. After removing the culture media, the cells were rinsed with phosphate buffer. Cells were then treated with 3a and suspended in 66% ethanol on the ice at 4 °C. Then, PI was added together with the RNase staining solution. Incubation was allowed for 20–30 min at 37 °C in the dark. For the preparation of flow cytometry, fixed cells were placed on ice. Podium iodide fluorescence was collected using 488 nm laser illumination.
Thus, it was studied further to determine the mechanism of its cell growth inhibition. The standard PI flow cytometry assay was used to investigate cell cycle distribution and apoptosis induction in HepG-2 cells. […] 3a halts the cell cycle of HepG-2 at the G1-S phase.

[5] = In vitro cytotoxicity against normal WI-38 cell line; conditions: human
From the text: The viability assay (MTT method)[33] was used to evaluate the cytotoxic activity of the synthesised compounds against three mammalian tumour cell lines obtained from the VACSERA Tissue Culture Unit, namely MCF-7 cells (human breast cancer cell line), HepG-2 cells (human Hepatocellular carcinoma), and A-549 cells (lung carcinoma), as well as the normal WI-38 human cell line for both compounds 3a and 5d. […] 1% Crystal violet stain: it is composed of 0.5% (w/v) crystal violet and 50% methanol, which is then diluted to volume with ddH2O and filtered through a Whatman No.1 filter paper. Dulbecco’s modified Eagle’s medium (DMEM) supplemented with 10% heat-inactivated foetal bovine serum, 1% L-glutamine, HEPES buffer, and 50 μg/mL gentamycin was used to grow the cells. All cells were cultured twice a week and kept at 37 °C in a humidified atmosphere with 5% CO2. In 100 μL of the growth medium, the cells were seeded in a 96-well plate at a cell concentration of 1 × 10^4 cells per well. After 24 h of seeding, a fresh medium containing different concentrations of the test sample was added. A multichannel pipette was used to add serial two-fold dilutions of the tested chemical compound to confluent cell monolayers dispensed into 96-well, flat-bottomed microtiter plates (Falcon, NJ, USA). The microtiter plates were incubated for 24 h at 37 °C in a humidified incubator with 5% CO2. For each concentration of the test sample, three wells were used. […] Glacial acetic acid (30%) was thoroughly mixed into all wells, and the absorbance of the plates was measured. Background absorbance detected in wells without added stain was corrected for in all results. […] Each tested compound’s cytotoxic effect on cells was calculated. To determine the number of viable cells, the optical density was measured using a microplate reader (Sunrise, TECAN, Inc, USA), and the percentage of viability was calculated as [(ODt/ODc)] × 100%, where ODt is the mean optical density of wells treated with the tested sample and ODc is the mean optical density of untreated cells. […]

[6] = target: HSP90; assay: In vitro HSP90 enzyme inhibition assay (HSP90 (C-Terminal) Inhibitor Screening Assay Kit); assay type: biochemical; conditions: read-out: HSP90 IC50 (mean ± SD)
Method: (§3) In vitro enzyme inhibitory assay of compounds 3a and 5d was performed against Topoisomerase-II enzyme using Topoisomerase II Assay Kit (plasmid-based)[34] and HSP90 enzyme using HSP90 (C-Terminal) Inhibitor Screening Assay Kit[35]. The procedure of the used kits was done according to the manufacturer’s instructions.
As reported, cancer cell growth and proliferation are inhibited when HSP90 is inhibited.

[7] = tested on: MCF-7, HepG-2 and A-549 cells; assay: Anti-proliferative screening, classification over the three cell lines; assay type: cell-based; conditions: compared to methotrexate
Method: as §1, §2

[8] = tested on: gene encoding HSP90; assay: HSP90 gene expression (RT-PCR) in HepG-2; assay type: cell-based, human; conditions: supernatant of HepG-2 cell lines, compared to control cells
Method: (§4) The level of Topoisomerase II, HSP90, and caspase-3 gene expression were assessed using Bio-Rad RT-PCR Kit following the manufacturer’s instructions. HepG-2 cells were exponentially grown and then treated with 3a after treatment with DNA polymerase and fluorescein. The expression of Topoisomerase II, HSP90, and caspase-3 genes was measured fluorometrically.
(§5) A caspase family is a group of cysteine proteases that activates apoptosis through receptor or mitochondrial-dependent cell death. Caspase-3 activation catalyses the cleavage of key cellular proteins, leading to both mitochondrial-dependent and non-dependent cell death. Caspase-3 is also associated with cell rupture and the formation of apoptotic bodies. The effect of 3a on caspase-3 gene expression was studied in HepG-2 cell lines. […] The gene that encodes DNA Topoisomerase II controls the topology of […] during DNA transcription. This gene is a target for anti-proliferative agents by altering enzyme activity. In the present work, the effect of 3a on the expression of the gene encoding Topoisomerase II in the supernatant of HepG-2 cell lines was studied. […] Furthermore, the HSP90 encoding gene interferes with the proper folding of specified protein targets and interferes with ATP binding.

[9] = tested on: gene encoding Topoisomerase II; assay: Topoisomerase II gene expression (RT-PCR) in HepG-2; assay type: cell-based, human; conditions: supernatant of HepG-2 cell lines, compared to control cells
Method: as §4, §5

[10] = target: T1, Topoisomerase II (Homo sapiens, UniProt P11388); assay: In vitro Topoisomerase II enzyme inhibition assay (plasmid-based kit); assay type: biochemical
T1 construct: purchased
T1 sequence (P11388 whole entry): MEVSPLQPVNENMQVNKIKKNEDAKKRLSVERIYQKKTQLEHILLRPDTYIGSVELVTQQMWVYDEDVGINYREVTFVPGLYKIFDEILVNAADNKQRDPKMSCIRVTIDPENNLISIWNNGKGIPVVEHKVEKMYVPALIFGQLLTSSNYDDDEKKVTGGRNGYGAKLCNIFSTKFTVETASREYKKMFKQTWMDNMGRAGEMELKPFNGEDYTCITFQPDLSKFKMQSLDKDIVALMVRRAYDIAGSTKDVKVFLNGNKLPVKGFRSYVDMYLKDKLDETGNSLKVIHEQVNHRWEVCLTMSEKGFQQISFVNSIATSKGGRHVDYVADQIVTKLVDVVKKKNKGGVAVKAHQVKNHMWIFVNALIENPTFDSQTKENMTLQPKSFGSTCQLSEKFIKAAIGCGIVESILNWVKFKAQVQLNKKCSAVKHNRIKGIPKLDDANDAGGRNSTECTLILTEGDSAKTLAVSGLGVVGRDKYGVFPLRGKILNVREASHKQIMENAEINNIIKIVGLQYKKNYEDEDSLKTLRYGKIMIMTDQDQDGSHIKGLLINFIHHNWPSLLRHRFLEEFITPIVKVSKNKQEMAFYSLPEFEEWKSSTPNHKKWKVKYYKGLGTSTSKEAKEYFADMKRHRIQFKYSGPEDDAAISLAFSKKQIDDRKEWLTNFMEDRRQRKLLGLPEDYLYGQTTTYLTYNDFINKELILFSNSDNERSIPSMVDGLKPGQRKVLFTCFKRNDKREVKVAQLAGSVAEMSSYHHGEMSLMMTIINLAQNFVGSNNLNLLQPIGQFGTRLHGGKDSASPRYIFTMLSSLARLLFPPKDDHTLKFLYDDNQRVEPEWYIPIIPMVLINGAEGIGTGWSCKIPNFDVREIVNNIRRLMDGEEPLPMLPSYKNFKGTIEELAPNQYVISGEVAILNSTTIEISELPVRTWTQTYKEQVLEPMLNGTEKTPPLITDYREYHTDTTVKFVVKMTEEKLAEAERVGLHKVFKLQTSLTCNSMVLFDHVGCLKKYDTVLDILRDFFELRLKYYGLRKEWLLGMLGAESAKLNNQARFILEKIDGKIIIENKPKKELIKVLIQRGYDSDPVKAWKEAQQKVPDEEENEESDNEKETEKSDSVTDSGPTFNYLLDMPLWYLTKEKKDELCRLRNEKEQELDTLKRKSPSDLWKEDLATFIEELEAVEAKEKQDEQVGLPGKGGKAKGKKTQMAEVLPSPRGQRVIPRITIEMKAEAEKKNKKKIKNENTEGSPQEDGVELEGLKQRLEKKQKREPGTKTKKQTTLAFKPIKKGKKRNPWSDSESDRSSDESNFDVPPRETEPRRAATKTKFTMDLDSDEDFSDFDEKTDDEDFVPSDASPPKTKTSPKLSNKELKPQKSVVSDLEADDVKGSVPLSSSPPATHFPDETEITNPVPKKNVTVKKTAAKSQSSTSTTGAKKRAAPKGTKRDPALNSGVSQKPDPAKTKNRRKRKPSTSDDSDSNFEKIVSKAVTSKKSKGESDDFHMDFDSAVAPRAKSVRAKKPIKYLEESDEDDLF
Method: as §3
Topoisomerase II inhibitors can cause DNA damage and halt the cell cycle.

[11] = tested on: caspase-3 gene; assay: caspase-3 gene expression (RT-PCR) in HepG-2; assay type: cell-based, human; conditions: HepG-2, compared to control cells
Method: as §4, §5

[12] = tested on: HepG-2 cells; assay: Cellular apoptosis analysis (Annexin V-FITC/PI); assay type: cell-based, human; conditions: HepG-2, 14.31 μM, 24 h; untreated cells 0.58%
Method: Annexin V is a protein that has a high affinity to bind to membrane phosphatidylserine (PS) translocated from the inner cellular plasma membrane to the cell surface after apoptosis initiation following the manufacturer protocol (Biovision, USA)[37]. HepG-2 cells in exponential growth were treated with compound 3a and incubated for 24 h. Then, 1–5 × 10^5 were collected via centrifugation and suspended in 500 µL of 1X Binding Buffer, 5 µL of Annexin V-FITC, and 5 µL of propidium iodide were added and allowed to incubate in the dark for 5 min, then Annexin V-FITC binding was quantified by flow cytometry using emission signal detector at 530 nm.
Using HepG-2 cells and the Annexin FITC/PI dual-labelling technique, 3a-induced apoptosis was investigated.

Row | SMILES | melting point | IC50 [1] | IC50 [2] | IC50 [3] | anti-proliferative activity category [7] | also measured
1 | Nc1c(N=[Se]=O)c(=O)[nH]c(=O)n1Cc1ccccc1Cl | > 300 °C | – | – | – | – | –
2 | O=c1[nH]cc(F)c(=O)[nH]1 [5-Fluorouracil, reference compound] | – | 10.1 ± 0.44 µM | 12.3 ± 0.53 µM | 7.37 ± 0.29 µM | – | –
3 | CC1(C)CC(=O)C=C(Nc2c(N)[nH]c(=O)[nH]c2=O)C1 [Compound 3a, 6-Amino-5-((5,5-dimethyl-3-oxocyclohex-1-en-1-yl)amino)pyrimidine-2,4(1H,3H)-dione] | – | 27.1 ± 1.91 µM | 30.7 ± 0.76 µM | 14.3 ± 0.83 µM | moderate to high | phase at which the cell cycle is halted ([4]; HepG-2): G1-S phase; %DIP G1 (cells in the G1-S phase) ([4]; HepG-2, 14.31 μM, untreated cells 43.82% (±2.61)): 51.46%; IC50 at 24 h [5]: 80.8 ± 3.04 µM; IC50 [6]: 1.78 ± 0.11 µM; HSP90 gene expression [8]: downregulating; also recorded: downregulated; Topoisomerase II gene expression [9]: downregulating; also recorded: downregulate; IC50 ([10]; in vitro enzyme assay, read-out: Topoisomerase II IC50 (mean ± SD)): 4.48 ± 0.65 µM; caspase-3 gene expression [11]: upregulating; also recorded: increased; also recorded: upregulated; total apoptotic cells [12]: 37.93%
4 | CC1(C)CC(=O)C=C(Nc2c(N)n(Cc3ccccc3Cl)c(=O)[nH]c2=O)C1 [Compound 3b, 6-Amino-1-(2-chlorobenzyl)-5-((5,5-dimethyl-3-oxocyclohex-1-en-1-yl)amino)pyrimidine-2,4(1H,3H)-dione] | 294 to 296 °C | 46.1 ± 1.63 µM | 36.4 ± 1.09 µM | 40.4 ± 1.25 µM | low to moderate | –
5 | Cn1c(N)c(NC2=CC(=O)CC(C)(C)C2)c(=O)[nH]c1=S [Compound 3c, 6-Amino-5-((5,5-dimethyl-3-oxocyclohex-1-en-1-yl)amino)-1-methyl-2-thioxo-2,3-dihydropyrimidin-4(1H)-one] | > 300 °C | > 100 µM | > 100 µM | > 100 µM | low | –
6 | CCn1c(N)c(NC2=CC(=O)CC(C)(C)C2)c(=O)[nH]c1=O [Compound 3d, 6-Amino-5-((5,5-dimethyl-3-oxocyclohex-1-en-1-yl)amino)-1-ethylpyrimidine-2,4(1H,3H)-dione] | > 300 °C | 31.4 ± 1.39 µM | 33.3 ± 0.99 µM | 21.6 ± 0.76 µM | moderate to high | –
7 | CC1(C)CC(=O)C=C(Nc2c(N)n(Cc3ccccc3)c(=O)[nH]c2=O)C1 [Compound 3e, 6-Amino-1-benzyl-5-((5,5-dimethyl-3-oxocyclohex-1-en-1-yl)amino)pyrimidine-2,4(1H,3H)-dione] | 292 to 294 °C | > 100 µM | 44 ± 1.28 µM | 47.6 ± 1.39 µM | low to moderate | –
8 | Cn1c(N)c(NC2=CC(=O)CC(C)(C)C2)c(=O)[nH]c1=O [Compound 3f, 6-Amino-5-((5,5-dimethyl-3-oxocyclohex-1-en-1-yl)amino)-1-methylpyrimidine-2,4(1H,3H)-dione] | > 300 °C | > 100 µM | > 100 µM | > 100 µM | low | –
9 | O=c1[nH]c(=O)c2n[se]nc2[nH]1 [Compound 5a, [1,2, 5]selenadiazolo[3,4-d]pyrimidine-5,7(4H,6H)-dione] | > 300 °C | 51.9 ± 1.48 µM | 58 ± 2.13 µM | 51.7 ± 2.09 µM | low to moderate | –
10 | Cn1c(=S)[nH]c(=O)c2n[se]nc21 [Compound 5b, 4-Methyl-5-thioxo-5,6-dihydro-[1,2,5]selenadiazolo[3,4-d]pyrimidin-7(4H)-one] | > 300 °C | 98.1 ± 3.45 µM | 68.7 ± 3.86 µM | 57.9 ± 2.43 µM | low to moderate | –
11 | CCn1c(=O)[nH]c(=O)c2n[se]nc21 [Compound 5c, 4-Ethyl-[1,2, 5]selenadiazolo[3,4-d]pyrimidine-5,7(4H,6H)-dione] | > 300 °C | 39.7 ± 1.32 µM | 42.5 ± 1.19 µM | 33.4 ± 1.09 µM | – | –
12 | O=c1[nH]c(=O)n(Cc2ccccc2)c2n[se]nc12 [Compound 5d, 4-Benzyl-[1,2, 5]selenadiazolo[3,4-d]pyrimidine-5,7(4H,6H)-dione] | 260 to 261 °C | 29.3 ± 0.86 µM | 26.8 ± 0.89 µM | 17.7 ± 0.81 µM | moderate to high | IC50 at 24 h [5]: 54.6 ± 2.05 µM; IC50 [6]: 7.69 ± 0.46 µM; IC50 [10]: 8.39 ± 1.07 µM
13 | Cn1c(=O)[nH]c(=O)c2n[se]nc21 [Compound 5e, 4-Methyl-[1,2, 5]selenadiazolo[3,4-d]pyrimidine-5,7(4H,6H)-dione] | > 300 °C | > 100 µM | > 100 µM | > 100 µM | low | –
14 | Cn1c(=O)c2n[se]nc2n(C)c1=O [Compound 7, 4,6-Dimethyl-[1,2, 5]selenadiazolo[3,4-d]pyrimidine-5,7(4H,6H)-dione] | 278 to 280 °C | > 100 µM | > 100 µM | > 100 µM | low | –
15 | COc1cccc2c1C(=O)c1c(O)c3c(c(O)c1C2=O)C[C@@](O)(C(=O)CO)C[C@@H]3O[C@H]1C[C@H](N)[C@H](O)[C@H](C)O1 [Doxorubicin, reference compound] | – | – | – | – | – | IC50 at 24 h [5]: 19.6 ± 0.74 µM
16 | CN(Cc1cnc2nc(N)nc(N)c2n1)c1ccc(C(=O)N[C@@H](CCC(=O)O)C(=O)O)cc1 [Methotrexate, reference compound] | – | 29.5 ± 2.19 µM | 34.5 ± 2.19 µM | 21.9 ± 1.08 µM | – | –
